Data published in patent publication US20130252930A1 (BIOMARIN PHARMACEUTICAL INC., priority 2010, published 2013).
Where two headings read alike, the source gives them in different places. Each block holds one compound with its values, some of them ahead of it.

Key:
[1] = Rat liver microsome stability assay (Biological Example 8a); conditions: liver microsomes, pH 7.4
[2] = molecular target: T1, Human C17,20-lyase (microsomal fraction from human testis) (Homo sapiens, UniProt P05093); assay: CYP17 enzymatic assay (% inhibition at 10 nM), version 2 (Biological Example 6); format: biochemical; conditions: method: tested at 100 nM; human testis microsome, radiometric
T1 construct: using microsomal fraction from human testis (Celsis Cat #S00110) as the enzyme source; tissue Celsis S00110; host or cells: human testis microsomal fraction
T1 sequence (P05093 1-508): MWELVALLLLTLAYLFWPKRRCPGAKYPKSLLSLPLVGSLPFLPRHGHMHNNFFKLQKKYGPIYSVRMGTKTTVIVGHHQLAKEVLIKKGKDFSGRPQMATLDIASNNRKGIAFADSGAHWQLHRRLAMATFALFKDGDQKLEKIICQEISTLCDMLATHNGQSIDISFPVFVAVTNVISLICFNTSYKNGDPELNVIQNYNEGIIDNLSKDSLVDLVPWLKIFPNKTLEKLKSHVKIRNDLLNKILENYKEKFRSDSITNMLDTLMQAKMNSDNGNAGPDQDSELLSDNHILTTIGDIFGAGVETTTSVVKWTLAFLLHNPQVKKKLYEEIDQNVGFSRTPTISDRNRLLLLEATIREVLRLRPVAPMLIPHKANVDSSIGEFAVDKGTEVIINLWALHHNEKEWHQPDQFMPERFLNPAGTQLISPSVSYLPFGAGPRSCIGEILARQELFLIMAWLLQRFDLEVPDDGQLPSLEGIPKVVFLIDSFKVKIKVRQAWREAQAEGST
Protocol: Human C17,20-lyase enzymatic assays were conducted in 200 μL volume in Eppendorf tubes, using microsomal fraction from human testis (Celsis Cat #S00110) as the enzyme source. Total protein concentration of the microsomal fraction is estimated to be 20 mg/ml. Prior to adding the microsomal fractions, reaction mixtures containing 50 mM NaPO4 buffer (pH 7.4), 1 mM MgCl2, 0.1 mM EDTA, 0.1 mM dithiothreitol, 0.5 mM NADPH, 4 μM 17α-hydroxypregnenolone, 1 μL of [21-^3H]-17α-hydroxypregnenolone (American Radiolabeled Chemicals, ART #1663, Specific activity=50-60 Ci/mmol), and the appropriate testing compounds were incubated for 5 minutes in a 37° C. shaking water bath (150 rpm). Following the 5-minute pre-incubation, 5 μL of human testis microsome was added to each of the reaction mixtures (except for the Negative Controls, which received 5 μL of H2O). After 30-minute incubation at 37° C. in shaking water bath (150 rpm), reactions were stopped by addition of 200 μL of cold chloroform and vigorous shaking for 30 minutes. Tubes were centrifuged at 1,500×g for 15 minutes at 4° C., and the aqueous phase was transferred to fresh Eppendorf tubes. Forty microliters (40 μL) of 8.5% charcoal (Sigma Cat #C6241) suspension was added to each tube, mixed well and incubated at 4° C. for 30 minutes. Tubes were centrifuged at 1,500×g for 15 minutes at 4° C., and 100 μL upper layer from each tube was transferred into each well of a 96-well isoplate (PerkinElmer Cat #6005040). Finally, 100 μL of Optiphase supermix scintillation fluid (PerkinElmer Cat #1200430) was added to each well, mixed by pippeting up and down 3 times. Radioactivity was measured with MicroBeta Trilux Counter using tritium program.
All testing compounds were dissolved and diluted in methanol. Two microliters (2 μL) of the properly diluted test compound was added to each reaction to reach the desired concentration. In Negative control (no enzyme activity) and Activity control (100% enzyme activity), 2 μL of methanol was added. Each data point was tested in duplicate. […]
For compounds of further interest, IC50 value was generated by measuring the inhibition rate at 5 concentrations and using Prism software under “non-linear regression analysis.”

[3] = molecular target: T2, CYP17 (human testicular microsome) (Homo sapiens, UniProt P05093); assay: CYP17 enzymatic assay (% inhibition at 10 nM), version 1 (Biological Example 5); format: biochemical; conditions: 10 nM compound, DHEA by ELISA, read-out: Biological Example No. 5: CYP17 percent inhibition at 10 nM (version 1)
T2 construct: using microsomal fraction from human testis (Celsis Cat #S00110) as the enzyme source; tissue Celsis S00110; host or cells: human testis microsomal fraction
T2 sequence (P05093 1-508): T1 sequence (P05093 1-508)

in vitro [4] = conditions: rat, microsomes, pH 7.4
[5] = molecular target: T3, Cyp21 enzyme (Human HEK 293-Cyp21 stable transfected cells) (Homo sapiens, UniProt P08686); assay: CYP21-HEK293 enzymatic assay (% inhibition at 100 nM) (Biological Example 10); format: cell-based; conditions: HEK 293-Cyp21 cells
T3 construct: expressed in transfected cells
T3 sequence (P08686 1-495): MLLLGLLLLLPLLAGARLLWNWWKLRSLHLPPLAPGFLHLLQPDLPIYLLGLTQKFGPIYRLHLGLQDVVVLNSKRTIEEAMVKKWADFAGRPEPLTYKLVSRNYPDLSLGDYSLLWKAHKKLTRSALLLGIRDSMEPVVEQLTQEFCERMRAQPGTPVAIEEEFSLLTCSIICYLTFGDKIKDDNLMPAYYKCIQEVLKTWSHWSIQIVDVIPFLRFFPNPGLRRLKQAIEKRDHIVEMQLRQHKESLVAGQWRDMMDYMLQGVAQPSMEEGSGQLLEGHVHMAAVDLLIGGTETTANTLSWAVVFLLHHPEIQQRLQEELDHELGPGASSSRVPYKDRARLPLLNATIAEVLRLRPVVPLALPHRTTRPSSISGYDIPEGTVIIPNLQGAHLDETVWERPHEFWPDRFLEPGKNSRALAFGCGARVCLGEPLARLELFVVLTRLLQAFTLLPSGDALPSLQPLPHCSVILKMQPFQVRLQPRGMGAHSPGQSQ
How it was run: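 Percent inhibition at 100 nM: DOC in conditioned medium was read by ELISA at 450 nm and quantified from a standard curve. Stably transfected human Cyp21 HEK293 cells were pretreated 5 h with compound or 1% methanol mock, then given 10 μM final progesterone for 20 h at 37 °C.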

in vitro [6] = conditions: human, microsomes, pH 7.4
[7] = Human liver microsome stability assay (Biological Example 8b); conditions: liver microsomes, pH 7.4
[8] = molecular target: T2, CYP17 (human testicular microsome); assay: CYP17 enzymatic assay (IC50) (Biological Example 4); format: biochemical; conditions: human testicular microsome, DHEA by ELISA; read-out: Biological Example No. 4: CYP17 enzymatic assay IC50
[9] = molecular target: T2, CYP17 (human testicular microsome); assay: CYP17 enzymatic assay (% inhibition at 1 nM) (Biological Example 12); format: biochemical; conditions: compound at 1 nM, read-out: CYP17 enzymatic assay % inhibition at 1 nM (Biological Example No. 12)
[10] = system: rat Cyp11B enzyme (rat adrenal mitochondria); assay: CYP11B enzymatic assay (% inhibition at 100 nM) (Biological Example 9); format: biochemical; conditions: compound at 100 nM
How it was run: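 Sprague Dawley rat adrenal mitochondria were incubated with compound at 100 nM, 0.5 mM NADPH and 0.1 μM 11-deoxycortisol (pH 7.4 Tris buffer) for 60 min at 37 °C. Cortisol was measured by ELISA and corrected by subtracting the no-NADPH background. % inhibition is relative to the no-compound reaction.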

half-life at 1 μM [1]: 1 to 10 min
Compound: C[C@]12CCC3C(CCN4C(=O)CC=CC[C@]34C)C1CC=C2c1cccnc1 (stereo partly drawn) [Compound 34, (11aR,13aS)-11a,13a-dimethyl-1-(pyridin-3-yl)-3b,4,5,8,11,11a,11b,12,13,13a-decahydro-3H-azepino[2,1-a]cyclopenta[f]isoquinolin-7(3aH)-one]
Biological Example No. 6: CYP17 percent inhibition (version 2) [2]: F (F means the compound had a percent inhibition of greater than or equal to 38%)

Compound: C[C@]12CCC3C(CCN4C(=O)C=CCC[C@]34C)C1CC=C2c1cccnc1 (stereo partly drawn) [Compound 35, (11aR,13aS)-11a,13a-dimethyl-1-(pyridin-3-yl)-3b,4,5,10,11,11a,11b,12,13,13a-decahydro-3H-azepino[2,1-a]cyclopenta[f]isoquinolin-7(3aH)-one]
Biological Example No. 6: CYP17 percent inhibition (version 2) [2]: F (F means the compound had a percent inhibition of greater than or equal to 38%)

Compound: C[C@]12CCCCC1=CC[C@@H]1[C@@H]2CC[C@]2(C)C(c3cccnc3)=CC[C@@H]12 [Compound 67, 3-((10R,13S)-10,13-dimethyl-2,3,4,7,8,9,10,11,12,13,14,15-dodecahydro-1H-cyclopenta[a]phenanthren-17-yl)pyridine]
inhibition at 0.01 µM [3]: 50 to 80% | half-life at 1 μM (in vitro [4]): 1 to 10 min

Compound: COc1cncc(C2=CC=C3[C@@H]4CCC5=CC(=O)CC[C@]5(C)[C@H]4CC[C@]23C)c1 [Compound 83, (10R,13S)-17-(5-methoxypyridin-3-yl)-10,13-dimethyl-6,7,8,9,10,11,12,13-octahydro-1H-cyclopenta[a]phenanthren-3(2H)-one]
inhibition at 0.01 µM [3]: 50 to 80% | inhibition at 0.1 µM ([5]; 100 nM compound, read-out: Biological Example No. 10: CYP21-HEK293 percent inhibition at 100 nM): ≥ 30% | half-life at 1 μM (in vitro [6]): 1 to 50 min

half-life at 1 μM [1]: 10 to 60 min | half-life at 1 μM [7]: 1 to 50 min | IC50 [8]: < 11 nM
Compound: C[C@]12CCOC(=O)C[C@@H]1CC[C@@H]1[C@@H]2CC[C@]2(C)C(c3cccnc3)=CC[C@@H]12 [Compound 112, (1S,2S,8S,12S,16S,11R)-2,16-dimethyl-15-(3-pyridyl)-5-oxatetracyclo[9.7.0.0^2,8.0^12,16]octadec-14-en-6-one]
Biological Example No. 6: CYP17 percent inhibition (version 2) [2]: F (F means the compound had a percent inhibition of greater than or equal to 38%)

half-life at 1 μM [1]: 10 to 60 min | half-life at 1 μM [7]: 1 to 50 min | IC50 [8]: < 11 nM
Compound: C[C@]12CCC(=O)OC[C@@H]1CC[C@@H]1[C@@H]2CC[C@]2(C)C(c3cccnc3)=CC[C@@H]12 [Compound 113, (1S,12S,16S,2R,8R,11R)-2,16-dimethyl-15-(3-pyridyl)-6-oxatetracyclo[9.7.0.0^2,8.0^12,16]octadec-14-en-5-one]
Biological Example No. 6: CYP17 percent inhibition (version 2) [2]: F (F means the compound had a percent inhibition of greater than or equal to 38%)

Compound: COc1cncc(C2=CC[C@H]3[C@@H]4CC[C@H]5COC(=O)CC[C@]5(C)[C@H]4CC[C@]23C)c1 [Compound 115, (1S,12S,16S,2R,8R,11R)-15-(5-methoxy(3-pyridyl))-2,16-dimethyl-6-oxatetracyclo[9.7.0.0^2,8.0^12,16]octadec-14-en-5-one]
Biological Example No. 6: CYP17 percent inhibition (version 2) [2]: F (F means the compound had a percent inhibition of greater than or equal to 38%)

Compound: CCOc1cncc(C2=CC[C@H]3[C@@H]4CC[C@H]5COC(=O)CC[C@]5(C)[C@H]4CC[C@]23C)c1 [Compound 117, (1S,12S,16S,2R,8R,11R)-15-(5-ethoxy(3-pyridyl))-2,16-dimethyl-6-oxatetracyclo[9.7.0.0^2,8.0^12,16]octadec-14-en-5-one]
Biological Example No. 6: CYP17 percent inhibition (version 2) [2]: G (G means the compound had a percent inhibition of less than 38% but greater than or equal to 3%)

Compound: CCNC(=O)NC1CC[C@@]2(C)C(=CCC3C2CC[C@]2(C)C(n4ccnc4)=CCC32)C1 (stereo partly drawn) [Compound 242, 1-((10R,13S)-17-(1H-imidazol-1-yl)-10,13-dimethyl-2,3,4,7,8,9,10,11,12,13,14,15-dodecahydro-1H-cyclopenta[a]phenanthren-3-yl)-3-ethylurea]
inhibition at 0.1 µM ([5]; compound at 100 nM, read-out: CYP21-HEK293 enzymatic assay % inhibition at 100 nM (Biological Example No. 10)): < 30% | inhibition at 0.001 µM [9]: > 50% | CYP11B enzymatic assay % inhibition at 100 nM (Biological Example No. 9) [10]: U (U means the compound had a percent inhibition of greater than or equal to 32%) | half-life at 1 μM (in vitro [6]): 1 to 50 min
